Results from patent publication US20100009970A1, “COMPOSITIONS AND METHODS FOR TREATMENT OF VIRAL DISEASES” (Combinatorx (Singapore) Pte. Ltd., priority 2008, published 2010).
Where “and” joins values, the source holds several entries; their conditions need not be identical. Equal values may be shown once. Entries after “also recorded” stand apart in the source; their conditions may differ. Read-outs that look alike come from different tables or passages of the source.

What was measured:
SRI = SRI (Homo sapiens, UniProt P31645); experiment: BBB/Neurotransmitter Binding: SRI
SRI, sequence (P31645 whole entry): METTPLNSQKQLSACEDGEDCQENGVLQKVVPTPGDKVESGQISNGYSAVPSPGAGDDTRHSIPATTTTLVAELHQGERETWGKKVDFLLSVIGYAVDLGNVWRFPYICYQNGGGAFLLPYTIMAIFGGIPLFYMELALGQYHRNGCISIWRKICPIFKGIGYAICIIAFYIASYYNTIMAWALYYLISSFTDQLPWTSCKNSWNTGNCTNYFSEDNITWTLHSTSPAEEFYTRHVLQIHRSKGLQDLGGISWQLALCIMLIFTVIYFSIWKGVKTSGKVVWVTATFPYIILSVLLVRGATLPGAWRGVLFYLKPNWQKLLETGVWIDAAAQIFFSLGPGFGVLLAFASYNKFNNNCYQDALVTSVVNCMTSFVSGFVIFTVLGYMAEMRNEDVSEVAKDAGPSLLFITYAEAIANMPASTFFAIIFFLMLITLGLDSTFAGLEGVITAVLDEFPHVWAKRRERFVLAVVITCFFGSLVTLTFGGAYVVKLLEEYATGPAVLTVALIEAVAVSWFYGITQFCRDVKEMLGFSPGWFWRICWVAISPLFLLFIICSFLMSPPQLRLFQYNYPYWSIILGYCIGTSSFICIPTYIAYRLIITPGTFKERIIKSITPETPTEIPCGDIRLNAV

in vitro = conditions: human
[1] = in vivo
[2] = test system: Huh7 cells expressing a subgenomic RNA replicon of Con1 (genotype 1b) sequence origin
[3] = test system: Huh7 cells expressing a subgenomic RNA replicon of Con1 (genotype 1b) sequence origin; experiment: microbe, parasite or virus in culture; conditions: Hepatitis C virus
influenza A/PR/8/34 = test system: influenza A/PR/8/34; design: species or system C57/BL6 mice; conditions: mouse, in vivo
HER1-2 = molecular target: T1, HER1-2 (Homo sapiens, UniProt P04626); conditions: selective HER1 inhibitor (vs. HER1-2); cited from earlier work
T1 construct: the other entry of the earlier key: EGFR (P00533, Epidermal growth factor receptor)
T1 sequence (P04626 with tags, fused parts or gaps): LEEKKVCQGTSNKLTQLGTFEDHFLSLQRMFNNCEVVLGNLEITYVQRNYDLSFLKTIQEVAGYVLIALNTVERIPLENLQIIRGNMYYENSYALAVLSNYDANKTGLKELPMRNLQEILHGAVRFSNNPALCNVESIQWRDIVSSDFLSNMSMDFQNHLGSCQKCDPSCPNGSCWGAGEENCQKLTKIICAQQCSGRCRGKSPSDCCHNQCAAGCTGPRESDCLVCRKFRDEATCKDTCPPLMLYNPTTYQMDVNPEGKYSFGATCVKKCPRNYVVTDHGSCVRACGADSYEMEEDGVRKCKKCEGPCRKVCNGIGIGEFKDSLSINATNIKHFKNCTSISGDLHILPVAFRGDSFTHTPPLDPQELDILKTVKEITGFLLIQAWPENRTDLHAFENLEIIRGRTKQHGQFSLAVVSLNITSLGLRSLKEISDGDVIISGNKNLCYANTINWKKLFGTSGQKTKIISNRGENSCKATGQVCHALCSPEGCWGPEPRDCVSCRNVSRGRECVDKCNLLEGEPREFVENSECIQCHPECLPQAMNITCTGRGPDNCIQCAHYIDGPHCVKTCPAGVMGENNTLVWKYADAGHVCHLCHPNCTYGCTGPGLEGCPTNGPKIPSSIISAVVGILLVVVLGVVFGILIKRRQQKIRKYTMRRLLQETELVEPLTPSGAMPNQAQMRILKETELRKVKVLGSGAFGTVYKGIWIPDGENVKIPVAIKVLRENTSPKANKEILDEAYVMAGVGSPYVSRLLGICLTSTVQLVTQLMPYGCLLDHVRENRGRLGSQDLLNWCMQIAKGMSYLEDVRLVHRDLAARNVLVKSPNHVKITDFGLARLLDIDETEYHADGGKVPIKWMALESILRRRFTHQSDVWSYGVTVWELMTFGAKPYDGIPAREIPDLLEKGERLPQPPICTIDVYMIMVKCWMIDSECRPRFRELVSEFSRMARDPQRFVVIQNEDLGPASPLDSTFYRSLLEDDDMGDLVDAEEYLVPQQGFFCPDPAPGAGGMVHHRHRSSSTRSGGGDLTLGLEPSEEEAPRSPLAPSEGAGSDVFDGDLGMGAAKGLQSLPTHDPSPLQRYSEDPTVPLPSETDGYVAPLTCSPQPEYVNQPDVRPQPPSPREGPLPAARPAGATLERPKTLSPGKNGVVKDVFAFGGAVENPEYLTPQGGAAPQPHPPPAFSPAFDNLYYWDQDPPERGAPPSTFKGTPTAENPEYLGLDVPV

NRI = NRI (Homo sapiens, UniProt P23975); type: binding
NRI, sequence (P23975 whole entry): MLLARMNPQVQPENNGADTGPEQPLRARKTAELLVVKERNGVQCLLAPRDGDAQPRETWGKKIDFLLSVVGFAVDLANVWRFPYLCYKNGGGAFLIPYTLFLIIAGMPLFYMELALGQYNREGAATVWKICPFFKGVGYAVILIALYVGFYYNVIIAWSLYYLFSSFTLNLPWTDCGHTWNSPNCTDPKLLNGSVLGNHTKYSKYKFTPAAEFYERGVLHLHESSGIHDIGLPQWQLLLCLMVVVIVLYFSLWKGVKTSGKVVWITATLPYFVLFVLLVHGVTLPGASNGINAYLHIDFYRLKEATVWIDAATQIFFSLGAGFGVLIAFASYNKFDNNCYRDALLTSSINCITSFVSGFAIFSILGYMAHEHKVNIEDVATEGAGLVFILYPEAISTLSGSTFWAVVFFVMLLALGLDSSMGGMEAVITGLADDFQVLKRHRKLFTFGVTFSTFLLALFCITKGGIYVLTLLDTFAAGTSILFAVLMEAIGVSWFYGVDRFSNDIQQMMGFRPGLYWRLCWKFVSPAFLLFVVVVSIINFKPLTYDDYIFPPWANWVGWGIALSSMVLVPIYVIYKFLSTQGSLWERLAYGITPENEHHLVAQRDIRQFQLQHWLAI

[4] = general description; cited from earlier work
[5] = GETYPE1B, Huh-7, 72 h, read-out: Max Effect @CC30 (inhibition)
[6] = Huh-7, read-out: IC50 (uM) [SG]
[7] = Huh-7, read-out: Max Effect@CC30 (inhibition)
[8] = Huh-7, read-out: Max effect @CC30 (%)
[9] = Huh-7, read-out: Max Effect @CC30 (inhibition)

| Structure (SMILES) | CC50 (in vitro; CC50 (uM)) | CC50 (in vitro; CC50 (uM) [SG]) | IC90 [2] | IC50 ([2]; read-out: IC50 (uM) [SG]) | IC50 ([3]; Huh-7) | IC90 ([3]; Huh-7) | IC50 [3, 6] | Emax [3, 7] | Emax [3, 8] | IC50 ([3]; Huh-7, read-out: SA IC50 (uM)) | CC50 (Huh7 parental cells; human) | Max Effect@CC30 (inhibition) [2] | CC50 (Huh7 parental cells) | also measured |
| --- | --- | --- | --- | --- | --- | --- | --- | --- | --- | --- | --- | --- | --- | --- |
| CSc1ccc(Oc2ccc(S(N)(=O)=O)cc2CN(C)C)cc1C [UK-416244, 3-((dimethylamino)methyl)-4-(3-methyl-4-(methylthio)phenoxy)benzenesulfonamide, reference compound] | 327 µM | > 50 µM | 6.55 µM | 1.74 µM | 1.41 µM | 6.17 ± 3.23 µM | 1.41 ± 0.2 µM | 97.2 ± 1.4% | 97.2 ± 1.4% | 1.41 ± 0.2 µM |  |  |  | BBB/Neurotransmitter Binding (nM) SRI (SRI; Table 19): <5 nM; Pharmcokinetics: Brain levels compared with sertraline [1]: lower than sertraline; Pharmcokinetics: Liver levels, fold over IC50 [1]: sertraline, 511 fold over; Pharmcokinetics: overall assessment [1]: Optimal PK, Liver; Emax [3, 5]: 97%; IC50 ([3]; Huh-7, 72 h): 1.63 µM; IC90 ([3]; Huh-7, 72 h): 9.86 µM |
| CN[C@H]1CC[C@@H](c2ccc(Cl)c(Cl)c2)c2ccccc21 [Sertraline, sertraline, reference compound] | 7.98 µM |  | 9.65 µM |  |  | 11.3 µM |  |  | 62.6 ± 21.5% |  | 7.7 µM | 75.12% |  | effect on survival rate (in words) (influenza A/PR/8/34): dose dependant increase in survival rate; also recorded: improves survival rate; Emax [3, 9]: 68.5% |
| N#C/C(=C\c1ccc(O)c(O)c1)C(=O)Nc1ccccc1 [AG-494, AG 494, reference compound] |  |  |  |  |  |  |  |  |  |  |  |  |  | IC50 (HER1-2): 45 µM; IC50 [2]: 3.45 µM |
| CN[C@H]1CC[C@@H](c2ccc(Cl)c(Cl)c2)c2ccc(CS(C)(=O)=O)cc21 [(1S,4S)-4-(3,4-dichlorophenyl)-N-methyl-7-(methylsulfonylmethyl)-1,2,3,4-tetrahydronaphthalen-1-amine] | 13 µM | 13 µM |  | 2.33 µM | 1.68 µM | 7.89 µM | 1.68 µM | 84.8% | 84.8% | 1.68 µM | 14.2 µM |  |  |  |
| CN[C@H]1CC[C@@H](c2ccc(Cl)c(Cl)c2)c2ccc(C(N)=O)cc21 [Sertraline A-ring carboxamide] |  |  | 5.4 ± 1.81 µM | 1.8 ± 0.18 µM |  |  |  |  |  |  |  | 94.5 ± 0.7% | 16.2 ± 0.57 µM | Pharmcokinetics: Brain levels compared with sertraline [1]: IC50, Brain levels lower; Pharmcokinetics: overall assessment [1]: Optimal PK. Liver; Max effect @CC30 (%) [2]: 94.5 ± 0.7%; IC50 ([2]; read-out: SA IC50): 1.8 µM; BBB/Neurotransmitter Binding (nM) NRI (NRI): 410 nM |
| CN[C@H]1CC[C@@H](c2ccc(Cl)c(Cl)c2)c2ccc(C[S+](C)[O-])cc21 (stereo partly drawn) [(1S,4S)-4-(3,4-dichlorophenyl)-N-methyl-7-(methylsulfinylmethyl)-1,2,3,4-tetrahydronaphthalen-1-amine] |  | 14.8 ± 0.97 µM | 5.17 µM and 5.15 µM | 1.55 µM |  | 5.13 ± 0.16 µM | 1.34 ± 0.26 µM | 96.5 ± 2.6% | 97.9 ± 1.1% | 1.46 ± 0.23 µM | 15.3 µM |  |  | BBB/Neurotransmitter Binding (nM) SRI (SRI): 340 nM; BBB/Neurotransmitter Binding (nM) NRI (NRI): 450 nM |
| CN(C)[C@H]1CC[C@@H](c2ccc(Cl)c(Cl)c2)c2ccc(C(=O)NC3CC3)cc21 [N,N-Dimethyl Sertraline A-Ring Reverse Cyclopropane Carboxam] [(5S,8S)—N-cyclopropyl-5-(3,4-dichlorophenyl)-8-(dimethylamino)-5,6,7,8-tetrahydronaphthalene-2-carboxamide] |  |  |  | 8.63 µM |  |  |  |  |  |  | 18.2 µM |  |  |  |
| CN[C@H]1CC[C@@H](c2ccc(Cl)c(Cl)c2)c2ccc(NS(C)(=O)=O)cc21 [Sertraline (Reverse) Methanesulfonamide, N-((5S,8S)-5-(3,4-dichlorophenyl)-8-(methylamino)-5,6,7,8-tetrahydronaphthalen-2-yl)methanesulfonamide] | 12.9 ± 0.3 µM | 12.9 ± 0.3 µM |  |  |  |  | 3.99 ± 0.8 µM | 83.3 ± 20.2% | 83.3 ± 20.2% | 3.99 ± 0.8 µM |  |  |  | CC50 (in vitro; CC50): 12.9 µM; Pharmcokinetics: Brain levels compared with sertraline [1]: lower sertraline; Pharmcokinetics: Liver levels compared with sertraline [1]: much greater; Pharmcokinetics: overall assessment [1]: Optimal PK, Liver levels; Emax [3, 5]: 83.3 ± 20.2%; IC50 ([3]; Huh-7, 48 h): 6.43 µM; Emax ([3]; Huh-7, 48 h, read-out: Max Effect): 95%; IC50 ([3]; Huh-7, 72 h): 3.99 ± 0.8 µM; BBB/Neurotransmitter Binding (nM) NRI (NRI): 60 nM |
| CNCc1cc(S(N)(=O)=O)ccc1Oc1ccc(SC)c(C)c1 [Compound 48, 4-(3-methyl-4-(methylthio)phenoxy)-3-((methylamino)methyl)benzenesulfonamide] | 39.6 µM | 39.6 µM | 8.26 ± 2.49 µM | 2.26 ± 0.11 µM | 2.33 µM | 10 µM | 2.33 µM | 95.5% | 95.5% | 2.33 µM | > 50 µM |  |  |  |
| Cl.N[C@H]1CC[C@@H](c2ccc(Cl)c(Cl)c2)c2ccccc21 [(1S,4S)-Desmethyl Sertraline, Hydrochloride] |  |  |  |  |  |  |  |  |  |  |  |  | 6.68 µM | IC50 [2]: 5.35 µM; Max Effect [2]: 98%; Synergy Score [2]: 2.14; TI (CC50/IC50) [2]: 1.247 |
| CN(C)[C@H]1CC[C@@H](c2ccc(Cl)c(Cl)c2)c2ccc(C(N)=O)cc21 [(5S,8S)-5-(3,4-dichlorophenyl)-8-(dimethylamino)-5,6,7,8-tetrahydronaphthalene-2-carboxamide] | 20.7 µM | 21.7 ± 1.44 µM | 8.73 µM | 3.18 µM | 2.96 µM | 8.77 ± 0.05 µM | 2.62 ± 0.48 µM | 94.3 ± 0.7% |  |  | 23.7 µM |  |  | Emax [3, 9]: 94.8% |
| CNC1CCC(c2cccs2)c2ccccc21 (stereo not drawn) [Sertraline B-ring 2-Thiophene] |  |  |  | 52.3 µM |  |  |  |  |  |  |  | 42% | 88.5 µM |  |
| CN[C@H]1CC[C@@H](c2ccc(Cl)c(Cl)c2)c2ccc(CN)cc21 [Sertraline A-Ring Methanamine, (1S,4S)-7-(aminomethyl)-4-(3,4-dichlorophenyl)-N-methyl-1,2,3,4-tetrahydronaphthalen-1-amine] | 3.7 µM | 3.7 µM |  | 1.67 µM | 1.6 µM | 3.28 µM | 1.59 µM | 85.9% | 85.9% | 1.59 µM | 3.68 µM |  |  | Emax [3, 9]: 85.9% |
| CNC1CCC(c2cccc(OC)c2)c2ccccc21 (stereo not drawn) [Sertraline B-ring m-Methoxy] |  |  |  |  |  |  |  |  |  |  |  | 27.70% | > 50 µM |  |
| CC(=O)OC[C@H]1O[C@@H]([S-])[C@H](OC(C)=O)[C@@H](OC(C)=O)[C@@H]1OC(C)=O.CCP(CC)CC.[Au+] [Auranofin, reference compound] |  |  |  |  |  |  |  |  |  |  |  |  |  | IC50 [2]: 1.07 µM; solubility in water (in words) [4]: insoluble in water |
| CN[C@H]1CC[C@H](c2ccc(Cl)c(Cl)c2)c2ccccc21.Cl [(1S,4R) Sertraline Hydrochloride] |  |  |  |  |  |  |  |  |  |  |  | 50 ± 17.4% | 7.51 ± 0.8 µM |  |
